According to patent US5620676A, “Biologically active ATP analogs” (priority 1995, dated 1997):
Entries after “also recorded” stand apart in the source; their conditions may differ.

Key:
[1] = target: T1, P2Y receptor (taenia coli) (Cavia porcellus, UniProt P59902); assay: Relaxation of carbachol-contracted guinea pig taenia coli
T1 construct: Relaxant responses mediated via P2Y receptors were examined in guinea pig taenia coli; from tissue; host or cells: guinea pig taenia coli (carbachol-contracted)
T1 sequence (P59902 whole entry): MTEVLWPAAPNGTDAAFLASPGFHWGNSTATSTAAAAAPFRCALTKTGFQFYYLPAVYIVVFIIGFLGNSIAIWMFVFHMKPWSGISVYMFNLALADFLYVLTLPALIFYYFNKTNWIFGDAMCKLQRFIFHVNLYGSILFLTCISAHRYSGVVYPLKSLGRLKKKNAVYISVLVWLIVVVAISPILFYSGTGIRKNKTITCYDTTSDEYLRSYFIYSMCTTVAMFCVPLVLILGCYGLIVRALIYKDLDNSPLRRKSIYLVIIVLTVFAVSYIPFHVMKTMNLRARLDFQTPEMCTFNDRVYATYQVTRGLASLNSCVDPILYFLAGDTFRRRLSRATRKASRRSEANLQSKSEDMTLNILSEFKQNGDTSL
Method in brief: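 Guinea pig taenia coli precontracted with 50 nM carbachol; relaxation to applied P2Y agonists expressed as percentage relaxation against negative log molar agonist concentration.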

[2] = target: T2, P2X receptor (vas deferens) (Cavia porcellus, UniProt A0A286XVA9); assay: Contraction of guinea pig isolated vas deferens
T2 sequence (A0A286XVA9 1-399): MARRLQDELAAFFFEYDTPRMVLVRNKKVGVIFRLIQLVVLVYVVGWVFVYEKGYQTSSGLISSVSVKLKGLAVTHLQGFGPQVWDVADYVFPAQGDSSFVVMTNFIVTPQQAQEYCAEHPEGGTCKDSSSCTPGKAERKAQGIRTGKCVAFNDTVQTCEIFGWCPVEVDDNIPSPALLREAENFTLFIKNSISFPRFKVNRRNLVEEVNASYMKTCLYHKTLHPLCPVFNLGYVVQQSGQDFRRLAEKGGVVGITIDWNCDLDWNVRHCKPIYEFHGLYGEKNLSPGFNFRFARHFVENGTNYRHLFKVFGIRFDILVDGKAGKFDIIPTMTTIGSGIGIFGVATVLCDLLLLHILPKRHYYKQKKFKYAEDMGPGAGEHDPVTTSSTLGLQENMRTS
Description: In FIG. 14, the x-axis is also marked in units of the negative log of the molar concentration of applied putative P2Y receptor agonists and the y-axis is marked in units of the percentage relaxation of the 1 μM noradrenalin-induced contraction of rabbit aorta endothelium. In FIGS. 15-16, the x-axis is marked in units of the negative log of the molar concentration of applied putative p^2X receptor agonists and the y-axis is marked in units of the percentage contraction relative to a standard dose of KCl (i.e., 60 mM), as assessed in guinea pig isolated urinary bladder detrussor muscle (FIG. 15) and guinea pig isolated vas deferens (FIG. 16).

[3] = target: T3, P2X receptor (urinary bladder) (Cavia porcellus, UniProt A0A286XVA9); assay: Contraction of guinea pig isolated urinary bladder detrussor muscle; details: for activity/potency in words, bladder: guinea pig urinary bladder
T3 construct: guinea pig isolated urinary bladder detrussor muscle; from tissue; host or cells: guinea pig isolated urinary bladder detrusor muscle

P2X and P2Y receptors = assay: Overall activity in the seven P2X and P2Y preparations
P2Y receptors = assay: Overall activity in P2Y receptor systems
Description: Phospholipase C activity: Stimulation of inositol phosphate formation by compounds of the present invention was measured in turkey erythrocyte membranes as described by Harden et al., supra and Boyer et al., supra. The K0.5 values were averaged from 3-8 independently determined dose-response curves for each compound. Briefly, one ml of washed turkey erythrocytes was incubated in inositol-free medium (DMEM; Gibco) with 0.5-1 mCi of 2-[^3 H]myoinositol (20 Ci/mmol; American Radiolabeled Chemicals Inc., St. Louis, Mo.)for 18-24 h in a humidified atmosphere of 95% air 5% CO2 at 37° C. Erythrocyte ghosts were prepared by rapid lysis in hypotonic buffer (5 mM sodium phosphate, pH 7.4, 5 mM MgCl2, 1 mM EGTA) as described by Boyer et al., supra. Phospholipase C activity was measured in 25 μl of [^3 H]inositol-labeled ghosts (≈175 μg of protein, 200-500,000 cpm/assay) in a medium containing 424 μM CaC12, 0.91 mM MgSO4, 2 mM EGTA, 115 mM KCl, 5 mM KH2 PO4, and 10 mM Hepes, pH 7.0. Assay (100 μl or 200 μl final volume) contained 1 μM GTPγS and the indicated concentrations of nucleotide analogs. Ghosts were incubated at 30° C. for 5 min, and total [^3 H]inositol phosphates were quantitated after purification by anion exchange chromatography according to Harden et al. (supra) and Boyer et al. (supra).
Muscular relaxation/contraction: Relaxant responses mediated via P2Y receptors were examined in guinea pig taenia coli, rabbit aorta, and rabbit mesenteric artery, as described by Hoyle et al. (Br. J. Pharmacol., 107, 367-374 (1992a)), Burnstock et al., (Br. J. Pharmacol., 90, 383-391 (1987a)), and Rubino et al., (Eur. J. Pharmacol., 212, 237-240 (1992)). Contractile responses mediated via P2X receptors were examined in the guinea pig urinary bladder and vas deferens, and rabbit saphenous artery, also using standard methods (see Hoyle et al., supra., 1992; Hoyle et al., Br. J. Pharmacol., 99, 617-621 (1990); and Burnstock et al., Br. J. Pharmacol., 90, 111-120 (1987b)).

[4] = listed as 2-(6-cyanohexyl)thio ATP
[5] = listed as 2-(6-cyanohexylthio)-ATP

SMILES | EC50 [1] | activity/potency in words, vas deferens [2] | activity/potency in words, bladder [3] | times more potent than ATP, bladder ([3]; guinea pig urinary bladder P2X receptors) | activity/potency in words, bladder [3, 4] | activity/potency in words, bladder ([3]; listed as 2-(6-cyanohexyl)thio-ATP) | activity/potency in words, bladder [3, 5] | overall activity in words, all preparations (P2X and P2Y receptors) | overall activity in words, P2Y systems (P2Y receptors; [4]) | overall activity in words, P2Y systems (P2Y receptors; [5]) | relaxation pD2, taenia coli ([1]; guinea pig taenia coli, log molar units)
N#CCCCCCCSc1nc(N)c2ncn([C@@H]3O[C@H](COP(=O)(O)OP(=O)(O)OP(=O)(O)O)[C@@H](O)[C@H]3O)c2n1 [2-(6-Cyanohexylthio)-ATP, 2-(6-Cyanohexylthio)adenosine-5'-triphosphate] | 1.58 nM | potent agonists in the vas deferens and urinary bladder | it produced tonic contractions rather than the phasic; also recorded: much less potent than ATP under the same conditions | approximately 100 times | produced tonic contractions rather than the typical phasic contractions of ATP | produced contractions that were less tonic, and with a lower potency than ATP under the same conditions | potent agonists in the vas deferens and urinary bladder | more potent than ATP in all systems except the P2X system of the saphenous artery | by far the most potent agonist in several P2Y receptor preparations | the most potent compound in all of the P2Y receptor assays; also recorded: nanomolar potency | –
C=CCCCCSc1nc(NC)c2ncn([C@@H]3O[C@H](COP(=O)(O)OP(=O)(O)OP(=O)(O)O)[C@@H](O)[C@H]3O)c2n1 [N^6 -Me-2-(5-hexenyl)-thio-ATP, N^6 -Me-2-(5-hexenylthio)adenosine 5'-triphosphate] | – | – | – | – | – | – | – | – | – | – | 7.2
